Results reported in PMC7948398, “Rapid kinetics reveal surprising flavin chemistry in bifurcating electron transfer flavoprotein from Acidaminococcus fermentans” (The Journal of Biological Chemistry, 2020).

Target: T1, EtfAB; EtfaB (EtfAB from which α-FAD was removed) (Acidaminococcus fermentans, UniProt D2RIQ2+D2RIQ3)
T1 construct: gene Acfer_0555; recombinant from pET-11a by autoinduction; AB heterodimer, 66 kDa; EtfAB holds α-FAD and β-FAD; EtfaB made by removing FAD from the A-subunit (phenyl Sepharose, KBr); with Electron transfer flavoprotein subunit alpha
T1 sequence (D2RIQ2 1-263): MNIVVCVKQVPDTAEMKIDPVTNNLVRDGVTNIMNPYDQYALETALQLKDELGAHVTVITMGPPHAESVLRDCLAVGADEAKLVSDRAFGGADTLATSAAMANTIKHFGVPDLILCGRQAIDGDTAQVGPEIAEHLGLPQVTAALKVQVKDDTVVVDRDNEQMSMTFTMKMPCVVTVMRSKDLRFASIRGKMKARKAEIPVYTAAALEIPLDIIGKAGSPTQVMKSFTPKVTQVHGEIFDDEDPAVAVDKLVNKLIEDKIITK
T1 sequence (D2RIQ3 1-340): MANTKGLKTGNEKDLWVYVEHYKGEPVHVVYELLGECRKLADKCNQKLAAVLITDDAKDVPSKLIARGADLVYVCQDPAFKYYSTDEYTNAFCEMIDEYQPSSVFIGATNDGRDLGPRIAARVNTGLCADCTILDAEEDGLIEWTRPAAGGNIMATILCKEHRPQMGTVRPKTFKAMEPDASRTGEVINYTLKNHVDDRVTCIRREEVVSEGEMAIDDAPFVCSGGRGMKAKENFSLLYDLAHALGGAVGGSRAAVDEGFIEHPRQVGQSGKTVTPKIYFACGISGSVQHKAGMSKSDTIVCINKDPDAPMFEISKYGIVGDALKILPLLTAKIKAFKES
Assay: anaerobic stopped-flow, kobs at […] nm versus [NADH]
Type: biochemical
Settings: EtfaB form (β-FAD only, α-FAD removed), slow-reacting minor population (~16%); 50 mM potassium phosphate pH 7.0, 4 °C; site at β-FAD

Kd: 3.8 ± 0.2 mM
Structure (SMILES): NC(=O)C1=CN([C@@H]2O[C@H](COP(=O)(O)OP(=O)(O)OC[C@H]3O[C@@H](n4cnc5c(N)ncnc54)[C@H](O)[C@@H]3O)[C@@H](O)[C@H]2O)C=CC1 [NADH]
